Measured values taken from ChEMBL document CHEMBL6087465, “Design, Synthesis, and Antitumor Activity Evaluation of 2-Phenylthiazole-5-Carboxylic Acid Derivatives Targeting Transactivation Response RNA-Binding Protein 2” (J Med Chem, 2025).
The source made the active and inactive calls. The calls are words filed in the database; no cut-off is given here.

How the values were obtained:
SK-HEP1 [1] = test: Antiproliferative activity against human SK-HEP1 cells cultured as 2D cells assessed as inhibition of cell growth at 10 uM incubated for 72 hrs by CCK-8 assay; type: functional, cell-based
HCCLM3 [2] = test: Antiproliferative activity against human HCCLM3 cells cultured as 2D cells assessed as inhibition of cell growth at 10 uM incubated for 72 hrs by CCK-8 assay; type: functional, cell-based
SK-HEP1 [3] = test: Antiproliferative activity against human SK-HEP1 cells cultured as 3D cells assessed as inhibition of cell growth at 10 uM incubated for 72 hrs by CellTiter-Lumi assay; type: functional, cell-based
HCCLM3 [4] = test: Antiproliferative activity against human HCCLM3 cells cultured as 3D cells assessed as inhibition of cell growth at 10 uM incubated for 72 hrs by CellTiter-Lumi assay; type: functional, cell-based
HCCLM3 [5] = test: Antiproliferative activity against human HCCLM3 cells cultured as 3D cells assessed as inhibition of colony formation at 25 uM incubated for 21 days by 3D soft-agar based microscopic analysis; type: functional, cell-based; conditions: time 21.0 day
SK-HEP1 [6] = test: Inhibition of cell migration in human SK-HEP1 cells at 10 uM incubated for 24 hrs by wound healing assay; type: functional, cell-based
HCCLM3 [7] = test: Inhibition of cell migration in human HCCLM3 cells at 10 uM incubated for 24 hrs by wound healing assay; type: functional, cell-based
SK-HEP1 [8] = test: Inhibition of cell migration in human SK-HEP1 cells at 10 uM incubated for 24 hrs by transwell assay; type: functional, cell-based
HCCLM3 [9] = test: Inhibition of cell migration in human HCCLM3 cells at 10 uM incubated for 24 hrs by transwell assay; type: functional, cell-based
Homo sapiens = species on record: Homo sapiens; test: Inhibition of recombinant human TRBP/recombinant human Dicer protein protein interaction at 25 uM by indirect-competition-ELISA
SK-HEP1 [10] = test: Antiproliferative activity against TARBP2-knockout human SK-HEP1 cells cultured as 3D cells assessed as inhibition of cell growth at 25 uM incubated for 72 hrs by CellTiter-Lumi assay; type: functional, cell-based
HCCLM3 [11] = test: Antiproliferative activity against TARBP2-knockout human HCCLM3 cells cultured as 3D cells assessed as inhibition of cell growth at 25 uM incubated for 72 hrs by CellTiter-Lumi assay; type: functional, cell-based
SK-HEP1 [12] = test: Antiproliferative activity against human SK-HEP1 cells cultured as 3D cells assessed as inhibition of cell growth at 25 uM incubated for 72 hrs by CellTiter-Lumi assay; type: functional, cell-based
HCCLM3 [13] = test: Antiproliferative activity against human HCCLM3 cells cultured as 3D cells assessed as inhibition of cell growth at 25 uM incubated for 72 hrs by CellTiter-Lumi assay; type: functional, cell-based
SK-HEP1 [14] = test: Inhibition of cell migration in human SK-HEP1 cells incubated for 24 hrs by transwell assay; type: functional, cell-based
HCCLM3 [15] = test: Inhibition of cell migration in human HCCLM3 cells incubated for 24 hrs by transwell assay; type: functional, cell-based
SK-HEP1 [16] = test: Inhibition of cell migration in TARBP2-knockout human SK-HEP1 cells at 1 to 25 uM incubated for 24 hrs by transwell assay; type: functional, cell-based; conditions: dose 1-25 µM
HCCLM3 [17] = test: Inhibition of cell migration in TARBP2-knockout human HCCLM3 cells at 1 to 25 uM incubated for 24 hrs by transwell assay; type: functional, cell-based; conditions: dose 1-25 µM
[18] = Inhibition of PI3K/AKT/mTOR signaling pathway in human HCCLM3 cells assessed as downregulation of AKT phosphorylation incubated for 24 hrs by Western blotting analysis; type: cell-based
[19] = Inhibition of PI3K/AKT/mTOR signaling pathway in human HCCLM3 cells assessed as downregulation of mTOR phosphorylation incubated for 24 hrs by Western blotting analysis; type: cell-based
HCCLM3 [20] = test: Antiproliferative activity against human HCCLM3 cells assessed as upregulation of SMAD7 expression at 10 uM by Western blotting analysis; type: functional, cell-based
HCCLM3 [21] = test: Antiproliferative activity against human HCCLM3 cells assessed as downregulation of SMAD2 phosphorylation at 10 uM by Western blotting analysis; type: functional, cell-based
HCCLM3 [22] = test: Antiproliferative activity against human HCCLM3 cells assessed as downregulation of SMAD3 phosphorylation at 10 uM by Western blotting analysis; type: functional, cell-based
HCCLM3 [23] = test: Antiproliferative activity against human HCCLM3 cells assessed as upregulation of SMAD7 expression incubated for 24 hrs by Western blotting analysis; type: functional, cell-based
HCCLM3 [24] = test: Antiproliferative activity against human HCCLM3 cells assessed as downregulation of SMAD2 phosphorylation incubated for 24 hrs by Western blotting analysis; type: functional, cell-based
HCCLM3 [25] = test: Antiproliferative activity against human HCCLM3 cells assessed as downregulation of SMAD3 phosphorylation incubated for 24 hrs by Western blotting analysis; type: functional, cell-based
[26] = Acute toxicity in Kunming mouse assessed as animal death at 100 mg/kg,ip administration measured after 14 days; type: organism-based; conditions: in vivo, 336 h, time 14 day
[27] = Acute toxicity in Kunming mouse assessed as body weight loss at 100 mg/kg,ip administration measured after 14 days; type: organism-based; conditions: in vivo, 336 h, time 14 day
[28] = Acute toxicity in Kunming mouse assessed as effect on AST level in liver at 100 mg/kg,ip administration measured after 14 days; type: organism-based; conditions: in vivo, 336 h, time 14 day
[29] = Acute toxicity in Kunming mouse assessed as effect on ALT level in liver at 100 mg/kg,ip administration measured after 14 days; type: organism-based; conditions: in vivo, 336 h, time 14 day
[30] = Acute toxicity in Kunming mouse assessed as effect on ALB level in liver at 100 mg/kg,ip administration measured after 14 days; type: organism-based; conditions: in vivo, 336 h, time 14 day
[31] = Acute toxicity in Kunming mouse assessed as effect on total bilirubin level in liver at 100 mg/kg,ip administration measured after 14 days; type: organism-based; conditions: in vivo, 336 h, time 14 day
[32] = Acute toxicity in Kunming mouse assessed as effect on direct bilirubin level in liver at 100 mg/kg,ip administration measured after 14 days; type: organism-based; conditions: in vivo, 336 h, time 14 day
[33] = Acute toxicity in Kunming mouse assessed as effect on urea level in kidney at 100 mg/kg,ip administration measured after 14 days; type: organism-based; conditions: in vivo, 336 h, time 14 day
[34] = Acute toxicity in Kunming mouse assessed as effect on creatinine level in kidney at 100 mg/kg,ip administration measured after 14 days; type: organism-based; conditions: in vivo, 336 h, time 14 day
[35] = Acute toxicity in Kunming mouse assessed as effect on uric acid level in kidney at 100 mg/kg,ip administration measured after 14 days; type: organism-based; conditions: in vivo, 336 h, time 14 day
[36] = Acute toxicity in Kunming mouse assessed as effect on creatine kinase level in heart at 100 mg/kg,ip administration measured after 14 days; type: organism-based; conditions: in vivo, 336 h, time 14 day
[37] = Acute toxicity in Kunming mouse assessed as effect on lactate dehydrogenase level in heart at 100 mg/kg,ip administration measured after 14 days; type: organism-based; conditions: in vivo, 336 h, time 14 day
[38] = Acute toxicity in Kunming mouse assessed as pathological change in heart at 100 mg/kg,ip administration measured after 14 days by hematoxylin and eosin staining based microscopic analysis; type: organism-based; conditions: in vivo, 336 h, time 14 day
[39] = Acute toxicity in Kunming mouse assessed as pathological change in spleen at 100 mg/kg,ip administration measured after 14 days by hematoxylin and eosin staining based microscopic analysis; type: organism-based; conditions: in vivo, 336 h, time 14 day
[40] = Acute toxicity in Kunming mouse assessed as pathological change in lung at 100 mg/kg,ip administration measured after 14 days by hematoxylin and eosin staining based microscopic analysis; type: organism-based; conditions: in vivo, 336 h, time 14 day
[41] = Acute toxicity in Kunming mouse assessed as pathological change in kidney at 100 mg/kg,ip administration measured after 14 days by hematoxylin and eosin staining based microscopic analysis; type: organism-based; conditions: in vivo, 336 h, time 14 day

Cc1nc(-c2ccc(OCC3CC3)cc2)sc1C(=O)O
Activity (SK-HEP1 [1]): inactive
Activity (HCCLM3 [2]): inactive

Cc1nc(-c2ccc(OCC3CC3)c(Br)c2)sc1C(=O)O
Activity (SK-HEP1 [1]): inactive
Activity (HCCLM3 [2]): inactive

CCCCOc1ccc(-c2nc(C)c(C(=O)O)s2)cc1
Activity (SK-HEP1 [1]): inactive
Activity (HCCLM3 [2]): inactive

COCCOc1ccc(-c2nc(C)c(C(=O)O)s2)cc1
Activity (SK-HEP1 [1]): inactive
Activity (HCCLM3 [2]): inactive
Activity (SK-HEP1 [3]): Active
Activity (HCCLM3 [4]): Active
Activity (HCCLM3 [5]): Active
inhibition (SK-HEP1 [6]): Active
inhibition (HCCLM3 [7]): Active
inhibition (SK-HEP1 [8]): Active
inhibition (HCCLM3 [9]): Active
inhibition (Homo sapiens): Active
Activity (SK-HEP1 [10]): inactive
Activity (HCCLM3 [11]): inactive
Activity (SK-HEP1 [12]): Active
Activity (HCCLM3 [13]): Active
inhibition (SK-HEP1 [14]): Dose-dependent-effect
inhibition (HCCLM3 [15]): Dose-dependent-effect
inhibition (SK-HEP1 [16]): inactive
inhibition (HCCLM3 [17]): inactive
inhibition [18]: Dose-dependent-effect
inhibition [19]: Dose-dependent-effect
Activity (HCCLM3 [20]): Time-dependent-effect
Activity (HCCLM3 [21]): Time-dependent-effect
Activity (HCCLM3 [22]): Time-dependent-effect
Activity (HCCLM3 [23]): Dose-dependent-effect
Activity (HCCLM3 [24]): Dose-dependent-effect
Activity (HCCLM3 [25]): Dose-dependent-effect
Activity [26]: Non-toxic
Activity [27]: Non-toxic
Activity [28]: Non-toxic
Activity [29]: Non-toxic
Activity [30]: Non-toxic
Activity [31]: Non-toxic
Activity [32]: Non-toxic
Activity [33]: Non-toxic
Activity [34]: Non-toxic
Activity [35]: Non-toxic
Activity [36]: Non-toxic
Activity [37]: Non-toxic
Activity [38]: Non-toxic
Activity [39]: Non-toxic
Activity [40]: Non-toxic
Activity [41]: Non-toxic

Cc1nc(-c2ccc(OCC(C)(C)C)cc2)sc1C(=O)O
Activity (SK-HEP1 [1]): inactive
Activity (HCCLM3 [2]): inactive
